Measurements published in patent US8173693B2, “Benzenesulfonamide derivatives and pharmaceutical composition thereof” (Purzer Pharmaceutical Co., Ltd., priority 2010, dated 2012).
Where “and” joins values, the source holds several entries; their conditions need not be identical. Identical values can stand only once.

Key:
[1] = test system: human nasopharyngeal carcinoma KB cells; assay: MTT assay; assay type: cell-based; conditions: Homo sapiens, KB; MTT assay, 72 hr
Method: (§1) Human Bladder Cancer TSGH cells, Human hepatoblastoma HepG2 cells, Human colorectal adenocarcinoma HT-29 cells, human nasopharyngeal carcinoma KB cells, Human gastric adenocarcinoma AGS cells, Human breast carcinoma MCF-7 cells, lung carcinoma A549 cells, and Human prostate carcinoma PC-3 cells were used in the preliminary cytotoxicity assays of the benzenesulfonamide derivatives of the present invention, and the inhibition activity against the tumor cells was evaluated.
(§2) All cell lines were maintained in RPMI 1640 supplied with 10% fetal bovine serum and maintained in a humidified chamber at 37° C. containing 5% CO2. Then, all cell lines were treated with compounds for 72 hr and subsequently incubated with 0.4 mg/mL of MTT at 37° C. for 2 hr. The medium was removed, and DMSO was added to dissolve MTT precipitate. Cell proliferation was determined by measuring the optical density at 540 nm using a Thermomax microplate reader (Molecular Devices, Sunnyvale, Calif.), and the IC50 values of the benzenesulfonamide derivatives of the present invention were calculated.

[2] = test system: Human Bladder Cancer TSGH cells; assay: MTT assay; assay type: cell-based; conditions: 72 hr
Method: as §1, §2

[3] = test system: Human hepatoblastoma HepG2 cells; assay: MTT assay; assay type: cell-based; conditions: 72 hr, read-out: IC50 HepaG2
Method: as §1, §2

[4] = test system: Human colorectal adenocarcinoma HT-29 cells; assay: MTT assay; assay type: cell-based; conditions: 72 hr
Method: as §1, §2

tumor cells = assay: Preliminary cytotoxicity assays (MTT, SRB), tumor cell panel; assay type: cell-based; conditions: comparison over Tables 1-4
Method: as §1, §2
All cell lines were maintained in RPMI 1640 supplied with 10% fetal bovine serum into 96-well microtiter plates and maintained in a humidified chamber at 37° C. containing 5% CO2. After 24 hr, cell lines in partial wells were fixed in situ with 10% trichloroacetic acid (TCA) to represent a measurement at the time of drug addition (T0). Then, cell lines in other wells were incubated with the benzenesulfonamide derivatives of the present invention for an additional 48 hr, and fixed in situ with 10% TCA to represent a measurement at the time of stopping reaction (Tx). […] Cell proliferation was determined by measuring the optical density at 515 nm using a Thermomax microplate reader (Molecular Devices, Sunnyvale, Calif.). The half-inhibition concention (GI50) of the benzenesulfonamide derivatives of the present invention was obtained from the detected optical density.

[5] = test system: Human breast carcinoma MCF-7 cells; assay: SRB assay; assay type: cell-based; conditions: MCF7, 48 hr
[6] = test system: Human hepatoblastoma HepG2 cells; assay: SRB assay; assay type: cell-based; conditions: 48 hr
[7] = test system: Human gastric adenocarcinoma AGS cells; assay: SRB assay; assay type: cell-based; conditions: 48 hr
[8] = test system: Human hepatoblastoma HepG2 cells; assay: SRB assay; assay type: cell-based; conditions: 48 hr; remark: listed apart in the source
Method: as §1
(§3) All cell lines were maintained in RPMI 1640 supplied with 10% fetal bovine serum into 96-well microtiter plates and maintained in a humidified chamber at 37° C. containing 5% CO2. After 24 hr, cell lines in partial wells were fixed in situ with 10% trichloroacetic acid (TCA) to represent a measurement at the time of drug addition (T0). Then, cell lines in other wells were incubated with the benzenesulfonamide derivatives of the present invention for an additional 48 hr, and fixed in situ with 10% TCA to represent a measurement at the time of stopping reaction (Tx). After rinsing the plates with PBS and air-drying, 0.4% sulforhodamine B solution (weight per volume in 1% acetic acid) was added to each well and the plates were incubated for 10 min at room temperature. Unbound sulforhodamine B was removed with 1% acetic acid and the plates were air-dried. Cells bound with sulforhodamine B was subsequently solubilized with 10 mM Tris base (Trizma; Sigma). Cell proliferation was determined by measuring the optical density at 515 nm using a Thermomax microplate reader (Molecular Devices, Sunnyvale, Calif.). The half-inhibition concention (GI50) of the benzenesulfonamide derivatives of the present invention was obtained from the detected optical density.

[9] = test system: Human gastric adenocarcinoma AGS cells; assay: SRB assay; assay type: cell-based; conditions: 48 hr; remark: listed apart in the source
Method: as §1, §3

[10] = test system: Human breast carcinoma MCF-7 cells; assay: SRB assay; assay type: cell-based; conditions: MCF7, 48 hr; remark: listed apart in the source
Method: as §1, §3

[11] = test system: Human colorectal adenocarcinoma HT-29 cells; assay: SRB assay; assay type: cell-based; conditions: 48 hr
Method: as §1, §3

[12] = test system: Human prostate carcinoma PC-3 cells; assay: SRB assay; assay type: cell-based; conditions: Homo sapiens; for GI50: PC-3, 48 h; for IC50: PC-3, 48 hr
Method: as §1, §3

[13] = test system: lung carcinoma A549 cells; assay: SRB assay; assay type: cell-based; conditions: Homo sapiens, 48 hr
Method: as §1, §3

[14] = test system: Human colorectal adenocarcinoma HT-29 cells; assay: SRB assay; assay type: cell-based; conditions: 48 hr; remark: listed apart in the source
[15] = test system: lung carcinoma A549 cells; assay: SRB assay; assay type: cell-based; conditions: Homo sapiens, 48 hr; remark: listed apart in the source
[16] = background statement; cited from earlier work
KB cells = conditions: Owa et al., J. Med. Chem. 1999, 42, 3789-3799; read-out: IC50 against KB cells; cited from earlier work
colon 38 cells = conditions: Owa et al., J. Med. Chem. 1999, 42, 3789-3799; read-out: IC50 against colon 38 cells; cited from earlier work
[17] = test system: P388 murine leukemia cells; conditions: Owa et al., J. Med. Chem. 1999, 42, 3789-3799; read-out: IC50 against P388 murine leukemia cells; cited from earlier work
4T1-Luc cells [18] = assay: In vivo evaluation, short-time treatment, mice implanted with 4T1-Luc cells; conditions: short-time treatment, GM119 25 mg/kg, Taxol 10 mg/kg
Method: GM119 (25 mg/kg) was applied to a mouse implanted with 4T1-Luc cells for a short time, and then Taxol (10 mg/kg) was applied thereto to observe the effect of GM119 on the 4T1-Luc cells.
(§4) A suspension of 4T1-Luc cells in matrigel was injected into the breast adipocyte to obtain mice implanted with luciferase tumor cells. […] When the size of the tumor cells was achieved to 200-500 mm^3, the mice were divided into 2 groups, and the number of the mice in each group is ≧5. Then, 0 or 25 mg/kg of GM119 was abdominal-injected into the mice for 5 days, wherein GM119 was dissolved in cremophor, and the volume of injection to each mouse is 50 μl. Then, 0 or 10 mg/kg of Taxol was abdominal-injected into the mice for every 2 days until death of the mice. The weight and the number of the mice were recorded every day to analyze the change on the weight and the survival time of the mice. After the drugs were applied to the mice, the size of the tumor cells in the mice was evaluated with bioluminescence every two days.

4T1-Luc cells [19] = assay: In vivo evaluation, long-time treatment, mice implanted with 4T1-Luc cells
Method: GM119 (25 mg/kg) and Taxol (10 mg/kg) were simultaneously applied to a mouse implanted with 4T1-Luc cells for a long time to observe the effect of GM119 on the 4T1-Luc cells.
as §4, with “Then, 0/0, 0/25, 10/[…],” for “Then, 0”, “or 10/0” for “or 25”, “of Taxol/GM119” for “of GM119”, “mice every two days until death of the mice,” for “mice for 5 days,”, “GM119 and Taxol were” for “GM119 was”, “μl.” for “μl. Then, 0 or 10 mg/kg of Taxol was abdominal-injected into the mice for every 2 days until death of the mice.”

SMILES | melting point [°C] | IC50 [5] [µM] | IC50 [6] [µM] | IC50 [7] [µM] | GI50 [8] [µM] | GI50 [9] [µM] | GI50 [10] [µM] | GI50 [11] [µM] | GI50 [12] [µM] | IC50 [12] [µM] | GI50 [13] [µM] | IC50 [14] [µM] | IC50 [15] [µM] | also measured
O=[N+]([O-])c1ccc(/N=N/c2c[nH]c3c(NS(=O)(=O)c4ccc(Cl)cc4)cccc23)cc1 [Compound 7a, 4-Chloro-N-[3-(4-nitrophenylazo)-1H-indol-7-yl]benzenesulfonamide] | 217 to 218 |  |  |  |  |  |  |  |  |  |  |  |  | IC50 [1]: 4.5 µM; IC50 [2]: 3.6 µM; IC50 [3]: 9.1 µM; IC50 [4]: 5.9 µM; inhibitory activity against the tumor cells (in words) (tumor cells): higher than that of the compound 5d
O=S(=O)(Nc1cccc2c(/N=N/c3ccccc3)c[nH]c12)c1ccc(Cl)cc1 [Compound 7c, 4-Chloro-N-(3-phenylazo-1H-indol-7-yl)benzenesulfonamide] | 110 to 111 |  |  |  |  |  |  |  |  |  |  |  |  | IC50 [1]: 15.3 µM; IC50 [2]: 14.2 µM; IC50 [3]: 28.4 µM; IC50 [4]: 13.8 µM; inhibitory activity against the tumor cells (in words) (tumor cells): higher than that of the compound 5d
Cc1ccc(C)c2c1[nH]c1c(N(C)S(=O)(=O)c3cccc(C(F)(F)F)c3)cccc12 [Compound 15j, N-(5,8-Dimethyl-9H-carbazol-1-yl)-N-methyl-3-trifluoromethylbenzenesulfonamide] | 192 to 194 | > 10 | > 10 | > 10 | > 10 | 7.8 | 7.8 | 5.6 | > 10 | > 10 | > 10 | 10 | > 10 | 
Cc1ccc(C)c2c1[nH]c1c(N(C)S(=O)(=O)c3ccc(Cl)s3)cccc12 [Compound 15k, 5-Chloro-thiophene-2-sulfonic acid (5,8-dimethyl-9H-carbazol-1-yl)-methyl-amide] | 179 to 181 | > 10 | 1.6 | > 10 | 0.7 | 7.5 | > 10 | 0.3 | 7 | > 10 | 8.1 | 3.9 | > 10 | 
CCN(c1cccc2c1[nH]c1c(C)ccc(C)c12)S(=O)(=O)c1ccc(OC)cc1 [Compound 16c, N-(5,8-Dimethyl-9H-carbazol-1-yl)-N-ethyl-4-methoxybenzenesulfonamide] | 151 to 152 | 0.8 | 0.08 | 1 | 0.04 | 0.4 | 0.4 | 0.05 | 0.06 | 0.3 | 0.4 | 0.3 | > 10 | 
CCCN(c1cccc2c1[nH]c1c(C)ccc(C)c12)S(=O)(=O)c1ccc(OC)cc1 [Compound 17c, N-(5,8-Dimethyl-9H-carbazol-1-yl)-N-propyl-4-methoxybenzenesulfonamide] | 60 to 62 | > 10 | 1.9 | > 10 | 0.8 | 0.6 | 6.1 | 0.3 | 3.5 | 8.6 | 5.9 | 0.8 | 10 | 
COc1ccc(S(=O)(=O)N(c2cccc3c2[nH]c2c(C)ccc(C)c23)C(C)C)cc1 [Compound 18c, N-(5,8-Dimethyl-9H-carbazol-1-yl)-N-isopropyl-4-methoxybenzenesulfonamide] | 222 to 224 | > 10 | 1.6 | > 10 | 0.5 | 0.5 | 9.5 | 0.2 | 4 | 9.4 | 7.8 | 0.7 | > 10 | 
COc1ccc(S(=O)(=O)Nc2cccc3c2[nH]c2ccccc23)cc1 [Compound 21a, N-(9H-Carbazol-1-yl)-4-methoxybenzenesulfonamide] | 204 to 206 | 4.4 | 0.08 | 0.07 | 0.04 | 0.01 | 0.07 | 0.03 | 0.2 | > 10 | 0.9 | 0.07 | 1.7 | 
O=S(=O)(Nc1cccc2c1[nH]c1ccccc12)c1cccc(C(F)(F)F)c1 [Compound 21b, N-(9H-Carbazol-1-yl)-3-trifluoromethylbenzenesulfonamide] | 188 to 190 | > 10 | > 10 | > 10 | > 10 | > 10 | > 10 | > 10 | > 10 | > 10 | > 10 | > 10 | > 10 | 
COc1ccc(S(=O)(=O)Nc2cccnc2Nc2ccc(O)cc2)cc1 [Compound E7010] |  |  |  |  |  |  |  |  |  |  |  |  |  | anti-cancer activity in mice [16]: shows great effect
NS(=O)(=O)c1ccc(S(=O)(=O)Nc2cccc3c(Cl)c[nH]c23)cc1 [Compound E7070] |  |  |  |  |  |  |  |  |  |  |  |  |  | IC50 (KB cells): 11.4 µM; IC50 (colon 38 cells): 0.26 µM and 0.3 µM; IC50 [17]: 1.2 µM
CC(=O)O[C@H]1C(=O)[C@@]2(C)[C@H]([C@H](OC(=O)c3ccccc3)[C@]3(O)C[C@H](OC(=O)[C@H](O)[C@@H](NC(=O)c4ccccc4)c4ccccc4)C(C)=C1C3(C)C)[C@]1(OC(C)=O)CO[C@@H]1C[C@@H]2O [Taxol, reference compound] |  |  |  |  |  |  |  |  |  |  |  |  |  | growth of the tumor cells (bioluminescence) (4T1-Luc cells [18]): the growth of the tumor cells can be inhibited; survival of the mice (4T1-Luc cells [19]; long time: Taxol 10 mg/kg and/or GM119 25 mg/kg abdominal-injected every two days until death, FIG. 3): the survival of the mice can be increased; growth of the tumor cells (bioluminescence) (4T1-Luc cells [19]; long-time treatment): the growth of the tumor cells can be inhibited
